Experimental data: US20120184542A1, “PYRIDO PYRIMIDINES” (priority 2011, published 2012)
Counter-ions that a name gives are not always drawn. Like-named read-outs stand apart in the source and are kept apart here.

Key:
Human DYRK1A = molecular target: T1, Human DYRK1A (Homo sapiens, UniProt Q13627); test: DYRK1A Kinase TR-FRET (IMAP-Tb) Assay; assay type: biochemical; conditions: for IC50: TR-FRET (IMAP-Tb), ATP 70 μM, 37° C. 60 minutes, read-out: Enzyme IC50 (μM) DYRK1A
T1 construct: purchased Invitrogen PV3997
Text: The kinase TR-FRET (IMAP-Tb) assay uses a fluorescence labeled substrate peptide in the kinase reaction. Upon phosphorylation by the kinase, phosphopeptide is produced, which will be detected by the binding solution provided in IMAP TR-FRET binding kit. After the completion of the kinase reaction, the reaction will be stopped by adding the binding solution containing terbium tracer. This tracer is immobilized on the surface of the IMAP beads, which also contain metal ions on the beads that bind to the phospho-groups of the products. Thus the phosphorylated product of the reaction can enter into close proximity to the tracer, producing resonance energy transfer. Due to the long lifetime of terbium (Tb) fluorescence the detection can be run in time resolved mode, which virtually eliminates fluorescence interference from assay components or compounds.
The TR-FRET signal measurement from this assay, given as an IC50 measurement, is a measure of a test compound's ability to interfere with the phosphorylation of the peptide substrate, that is it inhibits the phosphorylation of the substrate peptide by DYRK1A, and is thus a measure of the test compound's ability to inhibit the activity of DYRK1A.
• 1. Human DYRK1A: from Invitrogen. Part #PV3997 • 2. Substrate Peptide: […] • 3. IMAP TR-FRET IPP Explorer Kit: from Molecular Devices. Part #R8157 • 4. Kinase Assay Buffer (KAB): 10 mM HEPES pH 7.0, 50 mM NaCl, 5 mM MgCl2, 1 mM DTT, 1 mM NaVO4, 200 μg/mL BSA (0.02%) • 5. Assay Plate: Remp polypropylene clear 384-well microplate. […] Detection Plate: Costa black 384-well microplate.
• 1. Transfer 1.5 μL of 20× compound solution to each well of an assay plate. • 2. Add to each well 22.5 μL of KAB Buffer. • 3. Add to each well 3 μL of the solution of DYRK1A and ATP. […] Add to each well 3 μL of the substrate peptide. The assay concentration is 1.0 μM • 5. Incubate the assay plates at 37° C. for 60 minutes. • 6. Add 18 μL of Detection Solution (1:800 diluted Progress bead stock, 1:400 diluted Tb stock, 80% Buffer A, and 20% Buffer B) into each well of detection plates. • 7. Transfer 6 μL of assay solution from the assay plate to the detection plate. • 8. Shake detection plates for 30 minutes. • 9. Read plates in Envision with wavelength set at excitation 340 nm for Tb, emission 490 nm, and […].

Human DYRK1B = molecular target: T2, Human DYRK1B (Homo sapiens, UniProt Q9Y463); test: DYRK1B Kinase TR-FRET (IMAP-Tb) Assay; assay type: biochemical; conditions: for IC50: TR-FRET (IMAP-Tb), ATP 70 μM, 37° C. 60 minutes
T2 construct: purchased Invitrogen PR8350B (former PV4649)

[1] = read-out: Enzyme IC50 (μM) DYRK1B

T2 sequence (Q9Y463 whole entry): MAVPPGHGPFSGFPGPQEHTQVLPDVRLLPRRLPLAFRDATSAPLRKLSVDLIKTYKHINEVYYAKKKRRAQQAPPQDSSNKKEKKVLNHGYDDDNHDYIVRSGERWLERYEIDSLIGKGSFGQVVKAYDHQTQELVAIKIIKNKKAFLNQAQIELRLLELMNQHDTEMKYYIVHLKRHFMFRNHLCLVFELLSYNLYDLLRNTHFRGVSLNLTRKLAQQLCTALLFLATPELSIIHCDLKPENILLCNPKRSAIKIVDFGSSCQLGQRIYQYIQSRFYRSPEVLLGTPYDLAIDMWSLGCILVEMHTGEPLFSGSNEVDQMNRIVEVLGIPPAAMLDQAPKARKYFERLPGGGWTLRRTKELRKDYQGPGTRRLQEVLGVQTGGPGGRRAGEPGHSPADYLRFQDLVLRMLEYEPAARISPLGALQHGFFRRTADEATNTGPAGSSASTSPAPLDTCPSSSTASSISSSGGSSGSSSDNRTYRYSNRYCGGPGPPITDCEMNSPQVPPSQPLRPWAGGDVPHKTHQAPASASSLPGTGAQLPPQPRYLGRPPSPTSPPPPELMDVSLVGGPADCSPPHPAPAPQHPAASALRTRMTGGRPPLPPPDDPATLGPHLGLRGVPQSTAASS

Row | SMILES | IC50 (Human DYRK1A) | IC50 (Human DYRK1B; [1]) | IC50 (Human DYRK1B; Enzyme IC50 (μM) DYRK1B) | other results
1 | CC(NC(=O)c1ccc(Cl)c(NC(=O)c2cc3cnc(N4CCOCC4)nc3[nH]c2=O)c1)c1cccc(Cl)c1 (racemic) [Example 143, 2-Morpholin-4-yl-7-oxo-7,8-dihydro-pyrido[2,3-d]pyrimidine-6-carboxylic acid {2-chloro-5-[1-(3-chloro-phenyl)-ethylcarbamoyl]-phenyl}-amide] | – | – | – | inhibition at 10 µM (Human DYRK1A; read-out: % inhibition of DYRK1A at 10 μM test compound concentration): 57%; inhibition at 10 µM (Human DYRK1B; read-out: % inhibition of DYRK1B at 10 μM test compound concentration): 24%
2 | COc1ncc2cc(C(=O)Nc3cc(C(=O)O)ccc3Cl)c(=O)[nH]c2n1 [Example 22, 4-Chloro-3-[(2-methoxy-7-oxo-7,8-dihydro-pyrido[2,3-d]pyrimidine-6-carbonyl)-amino]-benzoic acid] | 0.601 µM | 2.73 µM | – | –
3 | COc1ncc2cc(C(=O)Nc3cc(C(=O)OCc4ccccc4)ccc3C)c(=O)[nH]c2n1 [Example 26, 3-[(2-Methoxy-7-oxo-7,8-dihydro-pyrido[2,3-d]pyrimidine-6-carbonyl)-amino]-4-methyl-benzoic acid benzyl ester] | 0.323 µM | 0.496 µM | – | –
4 | COc1ncc2cc(C(=O)Nc3cc(C(=O)NCc4ccccc4)ccc3C)c(=O)[nH]c2n1 [Example 27, 2-Methoxy-7-oxo-7,8-dihydro-pyrido[2,3-d]pyrimidine-6-carboxylic acid (5-benzylcarbamoyl-2-methyl-phenyl)-amide] | 0.376 µM | 2 µM | – | –
5 | COC(=O)c1ccc(C)c(NC(=O)c2cc3cnc(N4CCOCC4)nc3[nH]c2=O)c1 [Example 29, 4-Methyl-3-[(2-morpholin-4-yl-7-oxo-7,8-dihydro-pyrido[2,3-d]pyrimidine-6-carbonyl)-amino]-benzoic acid methyl ester] | 0.0859 µM | 0.12 µM | – | –
6 | COC(=O)c1ccc(Cl)c(NC(=O)c2cc3cnc(N4CCOCC4)nc3[nH]c2=O)c1 [Example 33, 4-Chloro-3-[(2-morpholin-4-yl-7-oxo-7,8-dihydro-pyrido[2,3-d]pyrimidine-6-carbonyl)-amino]-benzoic acid methyl ester] | 0.095 µM | 0.128 µM | – | –
7 | COC(=O)c1ccc(Cl)c(NC(=O)c2cc3cnc(N4CCCCC4)nc3[nH]c2=O)c1 [Example 34, 4-Chloro-3-[(7-oxo-2-piperidin-1-yl-7,8-dihydro-pyrido[2,3-d]pyrimidine-6-carbonyl)-amino]-benzoic acid methyl ester] | 0.05 µM | 0.06 µM | – | –
8 | COC(=O)c1ccc(Cl)c(NC(=O)c2cc3cnc(N4CCNCC4)nc3[nH]c2=O)c1 [Example 37, 4-Chloro-3-[(7-oxo-2-piperazin-1-yl-7,8-dihydro-pyrido[2,3-d]pyrimidine-6-carbonyl)-amino]-benzoic acid methyl ester] | 0.468 µM | 0.405 µM | – | –
9 | CCOCCN(CCOCC)c1ncc2cc(C(=O)Nc3cc(C(=O)OC)ccc3Cl)c(=O)[nH]c2n1 [Example 40, 3-({2-[Bis-(2-ethoxy-ethyl)-amino]-7-oxo-7,8-dihydro-pyrido[2,3-d]pyrimidine-6-carbonyl}-amino)-4-chloro-benzoic acid methyl ester] | 0.208 µM | 0.22 µM | – | –
10 | COC(=O)c1ccc(Cl)c(NC(=O)c2cc3cnc(NCCO)nc3[nH]c2=O)c1 [Example 41, 4-Chloro-3-{[2-(2-hydroxy-ethylamino)-7-oxo-7,8-dihydro-pyrido[2,3-d]pyrimidine-6-carbonyl]amino}-benzoic acid methyl ester] | 0.0796 µM | 0.07 µM | – | –
11 | COc1ncc2cc(C(=O)Nc3cc(C(=O)Nc4ccccc4)ccc3Cl)c(=O)[nH]c2n1 [Example 49, 2-Methoxy-7-oxo-7,8-dihydro-pyrido[2,3-d]pyrimidine-6-carboxylic acid (2-chloro-5-phenylcarbamoyl-phenyl)-amide] | – | – | 2.97 µM | –
12 | COc1ncc2cc(C(=O)Nc3cc(C(=O)N(C)Cc4cccc(Cl)c4)ccc3Cl)c(=O)[nH]c2n1 [Example 65, 2-Methoxy-7-oxo-7,8-dihydro-pyrido[2,3-d]pyrimidine-6-carboxylic acid {2-chloro-5-[(3-chloro-benzyl)-methyl-carbamoyl]-phenyl}-amide] | – | – | 0.586 µM | –
13 | COc1ncc2cc(C(=O)Nc3cc(C(=O)NCCc4cccc(Cl)c4)ccc3Cl)c(=O)[nH]c2n1 [Example 71, 2-Methoxy-7-oxo-7,8-dihydro-pyrido[2,3-d]pyrimidine-6-carboxylic acid {2-chloro-5-[2-(3-chloro-phenyl)-ethylcarbamoyl]-phenyl}-amide] | – | – | 0.135 µM | –
14 | Cc1ncc2cc(C(=O)Nc3cc(C(=O)NC(CCN)c4ccccc4)ccc3Cl)c(=O)[nH]c2n1 (stereo not shown) [Example 112, N-(5-(3-Amino-1-phenylpropylcarbamoyl)-2-chlorophenyl)-2-methyl-7-oxo-7,8-dihydropyrido[2,3-d]pyrimidine-6-carboxamide hydrochloride] | – | – | 0.018 µM | –
15 | CN1CCN(CCCNc2ncc3cc(C(=O)Nc4cc(C(=O)NC(CCN)c5ccccc5)ccc4Cl)c(=O)[nH]c3n2)CC1 (stereo not shown) [Example 120, N-(5-(3-Amino-1-phenylpropylcarbamoyl)-2-chlorophenyl)-2-(3-(4-methylpiperazin-1-yl)propylamino)-7-oxo-7,8-dihydropyrido[2,3-d]pyrimidine-6-carboxamide] | – | – | < 0.0046 µM | –
16 | COc1ncc2cc(C(=O)Nc3cc(C(=O)N[C@@H](CCN)c4cccc(Cl)c4)ccc3Cl)c(=O)[nH]c2n1 [Example 136, 2-Methoxy-7-oxo-7,8-dihydro-pyrido[2,3-d]pyrimidine-6-carboxylic acid {5-[(S)-3-amino-1-(3-chloro-phenyl)-propylcarbamoyl]-2-chloro-phenyl}-amide] | – | – | 2.55 µM | –
17 | Cc1ncc2cc(C(=O)Nc3cc(C(=O)N[C@H](CCN)c4ccccc4)ccc3Cl)c(=O)[nH]c2n1 [Example 168, (R)—N-(5-(3-Amino-1-phenylpropylcarbamoyl)-2-chlorophenyl)-2-methyl-7-oxo-7,8-dihydropyrido[2,3-d]pyrimidine-6-carboxamide hydrochloride] | – | – | < 0.0046 µM | –
18 | COc1nc(C)c2cc(C(=O)Nc3cc(C(=O)NC(CCN)c4ccccc4)ccc3Cl)c(=O)[nH]c2n1 (stereo not shown) [Example 169, N-(5-(3-Amino-1-phenylpropylcarbamoyl)-2-chlorophenyl)-2-methoxy-4-methyl-7-oxo-7,8-dihydropyrido[2,3-d]pyrimidine-6-carboxamide2,2,2-trifluoroacetate] | – | – | 0.101 µM | –
19 | COc1ncc2cc(C(=O)Nc3cc(C(=O)NC(CCCCN)c4ccccc4)ccc3Cl)c(=O)[nH]c2n1 (stereo not shown) [Example 186, N-(5-(5-Amino-1-phenylpentylcarbamoyl)-2-chlorophenyl)-2-methoxy-7-oxo-7,8-dihydropyrido[2,3-d]pyrimidine-6-carboxamide] | – | – | 1.01 µM | –
20 | COc1ncc2cc(C(=O)Nc3cc(C(=O)NC(CCCN)c4ccccc4)ccc3Cl)c(=O)[nH]c2n1 (stereo not shown) [Example 189, N-(5-(4-Amino-1-phenylbutylcarbamoyl)-2-chlorophenyl)-2-methoxy-7-oxo-7,8-dihydropyrido[2,3-d]pyrimidine-6-carboxamide] | – | – | 0.0214 µM | –
21 | COc1ncc2cc(C(=O)Nc3cc(C(=O)NC(CCN)C4CCCCC4)ccc3Cl)c(=O)[nH]c2n1 (stereo not shown) [Example 193, N-(5-(3-Amino-1-cyclohexylpropylcarbamoyl)-2-chlorophenyl)-2-methoxy-7-oxo-7,8-dihydropyrido[2,3-d]pyrimidine-6-carboxamide 2,2,2-trifluoroacetate] | – | – | 0.615 µM | –
